Values of other authors as cited in paper PMC12390126, “Human Skin Permeation of Ethoxy- and Propoxypropanol Commonly Found in Water-Based Products” (Toxics, 2025).
Where two headings read alike, the source gives them in different places.

Legend:
[1] = frozen full thickness skin, 32 °C, 4 h, cited from earlier work; for J ± SD / Kp ± SD: 56.1-61.7 mg/cm^2
[2] = dermatomed 0.8 mm, 32 °C, 24 h, cited from earlier work; for J ± SD / Kp ± SD: 109.6 (PGME) or 100.0 (PGBE) mg/cm^2
[3] = parameters: method as in PMID 15251185; settings: frozen full thickness skin (1 mm), 32 °C, 57.8 mg/cm^2, 8 h; cited from earlier work

Compound | J ± SD [1] | Kp ± SD [1] | Tlag ± SD [1] | J ± SD ([2]; fresh skin) | Kp ± SD ([2]; fresh skin) | Tlag ± SD ([2]; fresh skin) | J ± SD ([2]; frozen skin) | Kp ± SD ([2]; frozen skin) | Tlag ± SD ([2]; frozen skin) | J ± SD [3] | Kp ± SD [3] | Tlag ± SD [3]
CCCCOCC(C)O (stereo not drawn) [PGBE, propylene glycol butyl ether] | 17 ± 5 µg/cm^2/h | 0.02 ± 0.005 10^−3 cm/h | 0.62 ± 0.03 h | 7.93 ± 1.57 µg/cm^2/h | 0.009 ± 0.002 10^−3 cm/h | 0.89 ± 0.13 h | 44.1 ± 16.2 µg/cm^2/h | 0.05 ± 0.02 10^−3 cm/h | 0.86 ± 0.23 h | – | – | –
COCC(C)OC(C)=O (stereo not drawn) [PGMEac, propylene glycol methyl ether acetate] | 59 ± 44 µg/cm^2/h | 0.06 ± 0.006 10^−3 cm/h | 0.5 ± 0.05 h | – | – | – | – | – | – | – | – | –
dipropylene glycol methyl ether [DPGME] | – | – | – | – | – | – | – | – | – | 106.3 ± 37.6 µg/cm^2/h | 0.11 ± 0.04 10^−3 cm/h | 1.51 ± 0.48 h
